The results in this text go back to ChEMBL document CHEMBL1201862, “PubChem BioAssay data set” (2004).

Test [1] deals with CAAX prenyl protease 1 (Saccharomyces cerevisiae S288c, UniProt P47154). Kind of test: Ste24 protease inhibitors, dose response, biochemical, S. cerevisiae, plate reader, cherry-pick (AID 488815).
In test [2] the target is CAAX prenyl protease 2 (Homo sapiens, UniProt Q9Y256). Put plainly: human Rce1 protease inhibitors, dose response, biochemical, yeast membranes, quenched-peptide fluorescence, cherry-pick (AID 588849).
The target in test [3] is Troponin, cardiac muscle (Homo sapiens, UniProt P19429+P45379+P63316). Put plainly: Fluorescence-based biochemical high throughput dose response assay for activators of the calcium sensitivity of cardiac Regulated Thin Filaments (RTF). [Related pubchem assays (depositor defined):AID493008, AID493018, AID504382, AID504383]. It counts as protein-complex assay.
Test [4] addresses Keap1/Nrf2 (Homo sapiens, UniProt Q14145). Put plainly: Keap1-Nrf2 protein-protein interaction inhibitors, dose response, biochemical, fluorescence polarization, cherry-picked samples (AID 588683).
Test [5] concerns the target Cytochrome P450 2D6 (Homo sapiens, UniProt P10635).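 Also: CYP2D6 member of a cytochrome P450 panel assay.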
The target of test [6] is T1, Cytochrome P450 1A2 (Homo sapiens, UniProt P05177).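 Also: PubChem cytochrome P450 panel assay, CYP1A2 panel member.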
T1 sequence (P05177 whole entry): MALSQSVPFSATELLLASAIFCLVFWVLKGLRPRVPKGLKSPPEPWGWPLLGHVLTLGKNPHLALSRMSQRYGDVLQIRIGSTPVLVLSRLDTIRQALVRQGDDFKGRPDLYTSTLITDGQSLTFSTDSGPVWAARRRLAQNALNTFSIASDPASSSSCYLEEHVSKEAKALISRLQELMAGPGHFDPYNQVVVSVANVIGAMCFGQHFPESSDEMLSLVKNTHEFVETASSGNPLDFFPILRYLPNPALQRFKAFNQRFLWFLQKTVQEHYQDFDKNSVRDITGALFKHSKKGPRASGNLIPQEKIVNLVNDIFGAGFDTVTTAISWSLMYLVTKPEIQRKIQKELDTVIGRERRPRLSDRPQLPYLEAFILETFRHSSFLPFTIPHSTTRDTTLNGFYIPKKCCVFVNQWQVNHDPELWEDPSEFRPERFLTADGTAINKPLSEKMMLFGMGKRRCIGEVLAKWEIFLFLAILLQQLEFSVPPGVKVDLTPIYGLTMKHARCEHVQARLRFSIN

Test [7] is described as follows: NIH-3T3 fibroblast cytotoxicity, dose response, cytotoxicity control, cell-based, fluorescence, Alamar Blue, secondary assay (AID 2327).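 Also: NIH-3T3 mouse fibroblasts cultured with fluconazole at 8 µg/mL.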 Format: functional.
Test [8] can be described thus: C. albicans growth with fluconazole, confirmation, fluorescence, retest (AID 2467). Format: functional, cell-based.
Test [9] addresses Serine/threonine-protein phosphatase (Candida dubliniensis (strain CD36 / CBS 7987 / NCPF 3949 / NRRLY-17841) (Yeast), UniProt B9W6M3). Kind of test: calcineurin pathway inhibitors in yeast reporter, dose response, S. cerevisiae, CDRE-lacZ, luminescence, secondary (AID 2388).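 Also: yeast reporter cells carrying a calcineurin-responsive lacZ construct stimulated with calcium chloride; luminescent beta-galactosidase reporter signal in whole cells rather than isolated phosphatase activity; potency for inhibition where a drop in reporter signal means calcineurin blockade.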 It counts as functional, cell-based.
Test [10] has as its target ATP-dependent molecular chaperone HSP82 (Candida albicans (strain WO-1) (Yeast), UniProt C4YTQ8). Kind of test: loss of DOC-induced GRE-beta-galactosidase reporter signal, dose response, Hsp90 inhibitor project, S. cerevisiae, luminescence (AID 2400).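 Also: beta-galactosidase luminescence from glucocorticoid response element reporter as proxy for Hsp90 function; inhibitor potency where signal loss means Hsp90 inhibition.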 Format: functional, cell-based.
For test [11], the target named is T2, CAAX prenyl protease 2 (Saccharomyces cerevisiae S288c, UniProt Q03530).
T2 sequence (Q03530 whole entry): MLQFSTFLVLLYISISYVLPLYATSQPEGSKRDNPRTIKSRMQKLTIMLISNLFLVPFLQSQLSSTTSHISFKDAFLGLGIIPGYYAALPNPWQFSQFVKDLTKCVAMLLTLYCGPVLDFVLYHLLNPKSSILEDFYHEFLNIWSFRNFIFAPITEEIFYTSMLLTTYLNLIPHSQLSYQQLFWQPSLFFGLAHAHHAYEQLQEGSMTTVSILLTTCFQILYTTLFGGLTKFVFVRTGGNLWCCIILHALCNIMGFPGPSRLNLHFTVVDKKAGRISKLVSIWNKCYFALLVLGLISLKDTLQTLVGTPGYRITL
Format: biochemical.

Test [12] concerns HEK293. Kind of test: cells. It counts as functional, cell-based. The following applies: Homo sapiens.
Test [13] addresses T3, Nuclear receptor subfamily 0 group B member 1 (Homo sapiens, UniProt P51843).
T3 sequence (P51843 whole entry): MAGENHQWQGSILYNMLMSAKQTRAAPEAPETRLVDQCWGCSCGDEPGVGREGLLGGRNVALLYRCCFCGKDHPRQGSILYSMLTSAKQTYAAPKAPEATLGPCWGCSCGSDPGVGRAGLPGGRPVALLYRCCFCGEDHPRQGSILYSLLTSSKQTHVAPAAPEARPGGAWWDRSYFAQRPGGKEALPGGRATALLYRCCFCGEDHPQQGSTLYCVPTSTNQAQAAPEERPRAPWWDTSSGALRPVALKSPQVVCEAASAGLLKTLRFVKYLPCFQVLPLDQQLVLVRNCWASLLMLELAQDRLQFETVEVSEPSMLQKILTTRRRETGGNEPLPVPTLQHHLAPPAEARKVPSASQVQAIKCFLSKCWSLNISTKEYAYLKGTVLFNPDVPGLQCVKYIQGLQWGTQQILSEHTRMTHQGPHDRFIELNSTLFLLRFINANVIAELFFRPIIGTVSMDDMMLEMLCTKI
Put plainly: Luminescence-based cell-based high throughput dose response assay for inhibitors of the orphan nuclear receptor subfamily 0, group B, member 1 (DAX1; NR0B1). [Related pubchem assays (depositor defined):AID504766, AID504790]. It counts as functional.

Test [14] can be described thus: growth induction of Burl-1 ts yeast mutant, dose response, counter-screen for SUMOylation pathway inhibitor project, whole organism, S. cerevisiae, luminescence (AID 463199). Format: functional.

Activity calls are given as the source filed them. A value given as a limit tells only on which side of the number the result lay.

Sequence of CAAX prenyl protease 2 (Homo sapiens, UniProt Q9Y256) (Q9Y256 whole entry): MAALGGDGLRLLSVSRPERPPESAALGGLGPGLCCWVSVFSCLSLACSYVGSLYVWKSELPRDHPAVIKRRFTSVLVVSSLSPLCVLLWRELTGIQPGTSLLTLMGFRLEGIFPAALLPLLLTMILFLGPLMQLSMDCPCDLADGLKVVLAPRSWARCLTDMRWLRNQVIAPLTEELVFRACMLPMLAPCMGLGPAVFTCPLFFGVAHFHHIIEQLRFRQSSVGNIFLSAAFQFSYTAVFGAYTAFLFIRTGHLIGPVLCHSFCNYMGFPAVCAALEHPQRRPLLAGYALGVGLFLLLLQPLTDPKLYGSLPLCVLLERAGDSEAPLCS
Sequence of CAAX prenyl protease 1 (P47154 whole entry): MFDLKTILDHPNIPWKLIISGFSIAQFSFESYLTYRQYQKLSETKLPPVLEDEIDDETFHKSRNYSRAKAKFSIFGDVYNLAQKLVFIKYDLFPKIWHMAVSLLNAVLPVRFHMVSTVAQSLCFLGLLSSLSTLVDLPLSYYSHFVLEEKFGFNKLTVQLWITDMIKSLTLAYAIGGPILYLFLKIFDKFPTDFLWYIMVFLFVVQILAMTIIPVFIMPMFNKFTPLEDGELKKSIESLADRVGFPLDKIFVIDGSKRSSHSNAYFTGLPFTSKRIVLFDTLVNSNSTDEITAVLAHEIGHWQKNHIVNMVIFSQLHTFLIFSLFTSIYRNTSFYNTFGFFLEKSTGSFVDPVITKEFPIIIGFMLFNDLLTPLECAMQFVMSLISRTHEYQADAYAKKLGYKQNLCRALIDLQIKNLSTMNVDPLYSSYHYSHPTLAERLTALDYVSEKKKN
Sequence of Serine/threonine-protein phosphatase (B9W6M3 whole entry): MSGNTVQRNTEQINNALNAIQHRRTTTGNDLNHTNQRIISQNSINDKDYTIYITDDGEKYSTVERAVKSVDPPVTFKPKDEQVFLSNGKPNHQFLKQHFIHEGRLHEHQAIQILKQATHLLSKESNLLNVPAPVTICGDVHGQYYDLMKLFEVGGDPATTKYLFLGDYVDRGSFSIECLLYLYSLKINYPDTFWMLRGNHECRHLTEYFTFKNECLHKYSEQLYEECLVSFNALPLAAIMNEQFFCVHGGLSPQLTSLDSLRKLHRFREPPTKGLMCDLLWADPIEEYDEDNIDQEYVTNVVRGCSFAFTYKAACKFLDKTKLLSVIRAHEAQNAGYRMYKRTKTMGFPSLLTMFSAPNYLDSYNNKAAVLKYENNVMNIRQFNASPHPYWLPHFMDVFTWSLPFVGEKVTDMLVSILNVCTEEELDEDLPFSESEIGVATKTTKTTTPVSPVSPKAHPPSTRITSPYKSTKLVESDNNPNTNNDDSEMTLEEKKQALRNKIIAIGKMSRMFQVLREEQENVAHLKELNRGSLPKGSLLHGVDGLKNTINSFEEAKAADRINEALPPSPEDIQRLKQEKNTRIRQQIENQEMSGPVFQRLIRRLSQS
Sequence of Keap1/Nrf2 (Q16236 whole entry): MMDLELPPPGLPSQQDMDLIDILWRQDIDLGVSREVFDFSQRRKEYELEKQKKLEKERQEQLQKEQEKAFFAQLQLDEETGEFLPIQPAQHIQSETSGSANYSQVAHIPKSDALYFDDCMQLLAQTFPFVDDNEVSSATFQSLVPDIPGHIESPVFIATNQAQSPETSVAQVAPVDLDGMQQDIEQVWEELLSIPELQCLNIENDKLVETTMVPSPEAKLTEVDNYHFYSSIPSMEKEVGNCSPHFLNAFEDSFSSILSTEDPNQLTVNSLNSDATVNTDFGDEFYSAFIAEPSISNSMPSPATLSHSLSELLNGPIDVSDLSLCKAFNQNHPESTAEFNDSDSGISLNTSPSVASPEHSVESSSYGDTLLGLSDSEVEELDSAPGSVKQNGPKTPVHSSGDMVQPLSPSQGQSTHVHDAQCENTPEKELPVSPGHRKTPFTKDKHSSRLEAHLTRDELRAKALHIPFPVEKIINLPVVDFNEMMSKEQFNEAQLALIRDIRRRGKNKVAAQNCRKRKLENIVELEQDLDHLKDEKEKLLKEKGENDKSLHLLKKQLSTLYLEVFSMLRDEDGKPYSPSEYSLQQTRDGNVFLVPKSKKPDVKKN
Sequence of Keap1/Nrf2 (Q14145 whole entry): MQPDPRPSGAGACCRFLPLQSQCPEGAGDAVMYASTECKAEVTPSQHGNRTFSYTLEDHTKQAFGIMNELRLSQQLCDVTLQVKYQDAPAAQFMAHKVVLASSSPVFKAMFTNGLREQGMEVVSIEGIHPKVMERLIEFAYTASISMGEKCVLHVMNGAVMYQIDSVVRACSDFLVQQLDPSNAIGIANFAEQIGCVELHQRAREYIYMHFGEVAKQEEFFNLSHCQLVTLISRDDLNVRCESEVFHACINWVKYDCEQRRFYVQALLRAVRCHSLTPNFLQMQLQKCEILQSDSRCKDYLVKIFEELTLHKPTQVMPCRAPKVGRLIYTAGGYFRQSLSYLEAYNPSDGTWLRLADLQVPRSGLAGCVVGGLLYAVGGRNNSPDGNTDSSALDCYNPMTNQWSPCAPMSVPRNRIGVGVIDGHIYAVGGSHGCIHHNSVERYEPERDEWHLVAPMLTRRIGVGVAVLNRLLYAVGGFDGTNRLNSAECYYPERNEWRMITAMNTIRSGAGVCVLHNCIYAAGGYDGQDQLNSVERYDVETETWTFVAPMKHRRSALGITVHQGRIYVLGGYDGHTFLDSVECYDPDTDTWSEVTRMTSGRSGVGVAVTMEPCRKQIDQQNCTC
Sequence of ATP-dependent molecular chaperone HSP82 (C4YTQ8 whole entry): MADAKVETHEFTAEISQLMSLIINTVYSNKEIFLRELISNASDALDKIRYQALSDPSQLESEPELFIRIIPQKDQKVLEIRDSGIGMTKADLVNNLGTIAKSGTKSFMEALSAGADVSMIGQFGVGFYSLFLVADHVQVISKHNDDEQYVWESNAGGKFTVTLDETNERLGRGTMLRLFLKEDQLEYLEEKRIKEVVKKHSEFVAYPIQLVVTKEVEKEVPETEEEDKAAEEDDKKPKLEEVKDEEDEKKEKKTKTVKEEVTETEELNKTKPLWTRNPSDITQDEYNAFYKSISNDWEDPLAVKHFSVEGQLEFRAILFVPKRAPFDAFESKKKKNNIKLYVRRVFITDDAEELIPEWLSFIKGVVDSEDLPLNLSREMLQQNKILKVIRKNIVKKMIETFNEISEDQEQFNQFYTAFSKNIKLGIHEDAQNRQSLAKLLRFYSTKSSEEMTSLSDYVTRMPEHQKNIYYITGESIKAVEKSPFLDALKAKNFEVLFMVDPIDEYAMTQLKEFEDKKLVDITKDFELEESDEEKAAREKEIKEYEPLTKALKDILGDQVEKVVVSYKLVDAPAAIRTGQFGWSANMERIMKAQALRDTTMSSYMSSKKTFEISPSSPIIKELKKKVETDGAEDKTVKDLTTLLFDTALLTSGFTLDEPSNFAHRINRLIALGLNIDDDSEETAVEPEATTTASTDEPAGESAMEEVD
Sequence of Cytochrome P450 2D6 (P10635 whole entry): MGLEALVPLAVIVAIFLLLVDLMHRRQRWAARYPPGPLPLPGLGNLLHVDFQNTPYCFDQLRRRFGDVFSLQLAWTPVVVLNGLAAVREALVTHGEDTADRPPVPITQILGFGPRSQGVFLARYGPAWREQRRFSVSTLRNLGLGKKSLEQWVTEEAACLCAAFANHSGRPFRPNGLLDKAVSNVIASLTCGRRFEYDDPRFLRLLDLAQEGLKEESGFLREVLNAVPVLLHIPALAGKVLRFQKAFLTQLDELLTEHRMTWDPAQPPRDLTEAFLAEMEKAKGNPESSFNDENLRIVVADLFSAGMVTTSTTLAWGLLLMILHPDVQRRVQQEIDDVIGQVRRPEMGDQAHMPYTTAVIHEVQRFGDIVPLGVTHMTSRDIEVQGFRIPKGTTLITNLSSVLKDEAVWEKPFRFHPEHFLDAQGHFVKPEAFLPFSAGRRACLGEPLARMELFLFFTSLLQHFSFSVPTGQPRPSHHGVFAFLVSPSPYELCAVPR

As to `O=C(NCC1CC1)c1cc(-c2ccccc2)nn1CC1CC(c2cccc([N+](=O)[O-])c2)=NO1` (centres undefined), the AC50 was 6.73 µM (active) in [1] and 11.7 µM (active) in [2].
For the compound `CN1CCC2(CC1)C1CN(C)CC=C1C(C#N)=C(N)C2(C#N)C#N` (centres undefined), in test [3], the EC50 is 9 µM (active). For the same compound, the AC50 was > 52 µM (inactive) in test [4], 14.1 µM (inconclusive) in [5] and 20 µM (inconclusive) in [6].
Regarding `COc1cccc(C2CC(c3ccc(NS(C)(=O)=O)cc3)=NN2C(=O)c2ccccc2)c1OC` (centres undefined), the EC50 in test [7] was > 150 µM (inactive); in [8], 1.17 µM (active); in [9], > 180 µM (inactive); in test [10], > 150 µM (inactive).
As to `O=C(Nc1ccc2c(c1)CCC2)c1ccccc1Br`, the AC50 in test [11] is 8.42 µM (active). For the same compound, the IC50 in [12] and in [13] was > 67.6 µM (inactive) in each case.
Turning to `Cc1cccc(N2C(=O)/C(=C/c3cccnc3)SC2=S)c1`, the AC50 in test [14] is 51.7 µM (active).
